How the values were obtained:
[1] = target: Sphingosine kinase 1 (Homo sapiens) (UniProt Q9NYA1); details: at 1 µM
[2] = target: T1, Serine/threonine-protein kinase D1 (Homo sapiens) (UniProt Q15139); assay: Selectivity interaction (KinomeScan (DiscoverX)) EUB0000229b PRKD1; details: at 10 µM
T1 sequence (whole entry): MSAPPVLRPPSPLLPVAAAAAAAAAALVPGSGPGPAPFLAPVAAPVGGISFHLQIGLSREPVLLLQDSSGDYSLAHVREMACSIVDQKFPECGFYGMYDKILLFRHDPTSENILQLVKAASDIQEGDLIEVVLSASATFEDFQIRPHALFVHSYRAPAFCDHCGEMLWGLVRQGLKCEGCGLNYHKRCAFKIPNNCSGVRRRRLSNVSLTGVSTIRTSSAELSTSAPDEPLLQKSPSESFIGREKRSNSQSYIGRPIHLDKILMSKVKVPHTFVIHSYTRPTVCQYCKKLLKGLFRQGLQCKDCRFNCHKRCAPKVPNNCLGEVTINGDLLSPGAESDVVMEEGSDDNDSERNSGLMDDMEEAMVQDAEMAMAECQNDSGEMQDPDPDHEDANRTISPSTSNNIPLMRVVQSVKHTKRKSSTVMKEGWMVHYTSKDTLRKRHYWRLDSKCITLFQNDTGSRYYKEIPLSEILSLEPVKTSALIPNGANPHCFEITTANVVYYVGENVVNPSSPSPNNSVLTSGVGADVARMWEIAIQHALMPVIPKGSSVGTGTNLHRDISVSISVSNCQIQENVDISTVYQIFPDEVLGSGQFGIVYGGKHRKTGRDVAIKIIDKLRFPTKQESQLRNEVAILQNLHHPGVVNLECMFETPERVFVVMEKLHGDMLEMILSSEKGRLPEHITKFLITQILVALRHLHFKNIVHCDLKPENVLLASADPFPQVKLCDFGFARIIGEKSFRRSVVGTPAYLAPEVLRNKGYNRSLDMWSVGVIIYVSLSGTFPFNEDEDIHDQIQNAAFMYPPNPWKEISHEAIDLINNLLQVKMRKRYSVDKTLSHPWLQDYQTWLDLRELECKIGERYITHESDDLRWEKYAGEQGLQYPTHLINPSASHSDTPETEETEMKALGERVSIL

[3] = target: ALK tyrosine kinase receptor (Homo sapiens, UniProt Q9UM73); assay: Selectivity interaction (Kinase panel (33PanQinase(R) Activity Assay)) EUB0000877a ALK
[4] = target: Proto-oncogene tyrosine-protein kinase receptor Ret (Homo sapiens, UniProt P07949); assay: Selectivity interaction (Kinase panel (Invitrogen)) EUB0000639a RET; details: at 200 nM
[5] = target: Tyrosine-protein kinase CSK (Homo sapiens) (UniProt P41240); assay: Selectivity interaction (ActivX KiNativ screen (kinase selectivity in THP-1 cell lysates)) EUB0000639a CSK; format: subcellular; details: lysate
Tyrosine-protein kinase CSK (Homo sapiens), sequence (P41240 2-450 limits assumed): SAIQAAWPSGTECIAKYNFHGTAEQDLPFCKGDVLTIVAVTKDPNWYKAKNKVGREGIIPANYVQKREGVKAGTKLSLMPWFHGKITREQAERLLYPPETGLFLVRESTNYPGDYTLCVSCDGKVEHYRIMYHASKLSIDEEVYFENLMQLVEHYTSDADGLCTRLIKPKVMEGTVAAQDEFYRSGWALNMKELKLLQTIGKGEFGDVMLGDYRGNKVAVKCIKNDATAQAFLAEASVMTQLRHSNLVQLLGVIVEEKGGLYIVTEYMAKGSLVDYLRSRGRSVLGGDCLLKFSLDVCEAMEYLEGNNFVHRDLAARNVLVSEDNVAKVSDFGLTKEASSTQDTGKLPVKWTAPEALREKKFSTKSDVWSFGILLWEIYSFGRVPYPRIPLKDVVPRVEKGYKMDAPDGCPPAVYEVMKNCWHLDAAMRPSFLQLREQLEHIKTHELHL

[6] = target: Leucine-rich repeat serine/threonine-protein kinase 2 (Homo sapiens, UniProt Q5S007); assay: (§1) Selectivity interaction (KinomeScan (DiscoverX)) EUB0000092b LRRK2; details: at 10 µM
Leucine-rich repeat serine/threonine-protein kinase 2, sequence (Q5S007 whole entry): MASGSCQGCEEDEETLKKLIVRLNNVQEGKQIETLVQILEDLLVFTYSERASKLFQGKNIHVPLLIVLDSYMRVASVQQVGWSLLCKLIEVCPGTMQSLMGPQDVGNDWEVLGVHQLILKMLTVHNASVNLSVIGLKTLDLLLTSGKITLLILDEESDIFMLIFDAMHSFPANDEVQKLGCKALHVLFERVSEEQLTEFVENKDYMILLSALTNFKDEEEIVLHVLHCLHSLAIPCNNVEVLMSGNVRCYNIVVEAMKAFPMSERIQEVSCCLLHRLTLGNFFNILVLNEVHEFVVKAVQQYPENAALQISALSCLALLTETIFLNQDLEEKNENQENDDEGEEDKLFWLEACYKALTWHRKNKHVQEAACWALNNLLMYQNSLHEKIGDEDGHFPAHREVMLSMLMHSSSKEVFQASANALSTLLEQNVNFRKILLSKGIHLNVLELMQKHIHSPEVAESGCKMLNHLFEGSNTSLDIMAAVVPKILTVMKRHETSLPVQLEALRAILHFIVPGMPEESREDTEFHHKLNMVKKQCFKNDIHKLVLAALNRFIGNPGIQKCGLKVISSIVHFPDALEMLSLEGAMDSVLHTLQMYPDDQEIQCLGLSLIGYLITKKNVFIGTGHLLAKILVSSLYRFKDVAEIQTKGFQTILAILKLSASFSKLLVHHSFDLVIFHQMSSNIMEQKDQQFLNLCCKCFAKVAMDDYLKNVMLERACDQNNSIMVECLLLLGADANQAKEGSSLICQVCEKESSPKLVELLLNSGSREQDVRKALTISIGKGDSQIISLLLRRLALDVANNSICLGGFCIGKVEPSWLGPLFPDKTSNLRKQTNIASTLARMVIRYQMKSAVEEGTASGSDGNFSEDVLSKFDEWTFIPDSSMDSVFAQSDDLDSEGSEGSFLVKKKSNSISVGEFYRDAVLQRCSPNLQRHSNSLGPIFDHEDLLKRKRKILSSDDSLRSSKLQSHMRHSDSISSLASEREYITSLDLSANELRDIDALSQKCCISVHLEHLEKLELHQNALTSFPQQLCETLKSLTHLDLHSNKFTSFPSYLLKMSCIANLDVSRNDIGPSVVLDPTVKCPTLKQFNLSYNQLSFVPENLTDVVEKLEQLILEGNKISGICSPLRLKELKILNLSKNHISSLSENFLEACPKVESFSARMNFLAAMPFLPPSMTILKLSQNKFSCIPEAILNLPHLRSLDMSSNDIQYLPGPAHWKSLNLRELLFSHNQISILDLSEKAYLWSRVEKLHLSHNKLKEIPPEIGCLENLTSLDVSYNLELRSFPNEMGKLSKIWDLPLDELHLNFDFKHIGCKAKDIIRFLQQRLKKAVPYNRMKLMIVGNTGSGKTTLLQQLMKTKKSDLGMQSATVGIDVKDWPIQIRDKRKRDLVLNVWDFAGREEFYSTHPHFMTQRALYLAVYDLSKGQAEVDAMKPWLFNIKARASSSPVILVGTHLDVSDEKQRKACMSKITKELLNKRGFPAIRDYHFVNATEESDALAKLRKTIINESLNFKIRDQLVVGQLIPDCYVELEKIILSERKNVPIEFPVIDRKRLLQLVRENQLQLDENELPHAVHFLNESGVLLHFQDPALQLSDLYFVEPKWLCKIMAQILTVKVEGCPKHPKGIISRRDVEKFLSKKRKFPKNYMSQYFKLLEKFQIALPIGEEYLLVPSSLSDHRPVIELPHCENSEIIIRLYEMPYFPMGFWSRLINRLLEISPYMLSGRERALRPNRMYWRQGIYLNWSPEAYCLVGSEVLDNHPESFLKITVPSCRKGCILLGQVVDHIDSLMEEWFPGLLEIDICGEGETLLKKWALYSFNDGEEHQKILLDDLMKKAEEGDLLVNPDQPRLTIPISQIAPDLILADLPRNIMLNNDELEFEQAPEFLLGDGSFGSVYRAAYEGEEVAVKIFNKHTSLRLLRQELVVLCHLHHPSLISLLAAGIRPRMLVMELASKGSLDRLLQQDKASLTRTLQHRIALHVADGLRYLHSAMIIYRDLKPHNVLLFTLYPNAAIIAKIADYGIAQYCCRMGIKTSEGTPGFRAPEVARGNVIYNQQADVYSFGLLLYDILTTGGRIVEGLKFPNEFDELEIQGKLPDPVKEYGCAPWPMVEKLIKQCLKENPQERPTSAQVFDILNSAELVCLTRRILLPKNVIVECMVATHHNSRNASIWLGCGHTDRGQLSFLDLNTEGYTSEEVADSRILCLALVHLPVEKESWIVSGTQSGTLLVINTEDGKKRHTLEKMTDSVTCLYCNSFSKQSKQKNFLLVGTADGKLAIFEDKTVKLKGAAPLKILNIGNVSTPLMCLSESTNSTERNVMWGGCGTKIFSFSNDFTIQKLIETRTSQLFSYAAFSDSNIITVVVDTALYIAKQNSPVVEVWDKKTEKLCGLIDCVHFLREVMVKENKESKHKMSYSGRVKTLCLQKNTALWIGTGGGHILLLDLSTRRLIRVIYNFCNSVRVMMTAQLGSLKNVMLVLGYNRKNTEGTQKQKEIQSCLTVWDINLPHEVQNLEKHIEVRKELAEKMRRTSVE

[7] = system: Leucine-rich repeat serine/threonine-protein kinase 2 (Homo sapiens), Q5S007 [G2019S]; assay: as §1; details: at 10 µM
Leucine-rich repeat serine/threonine-protein kinase 2 (Homo sapiens), Q5S007 [G2019S], sequence (Q5S007 whole entry G2019S): as the sequence (Q5S007 whole entry) above, with G2019S counted along it

[8] = target: Cyclin-dependent kinase-like 1 (Homo sapiens) (UniProt Q00532); assay: Selectivity interaction (KinomeScan (DiscoverX)) EUB0000045b CDKL1
Cyclin-dependent kinase-like 1 (Homo sapiens), sequence (Q00532 whole entry): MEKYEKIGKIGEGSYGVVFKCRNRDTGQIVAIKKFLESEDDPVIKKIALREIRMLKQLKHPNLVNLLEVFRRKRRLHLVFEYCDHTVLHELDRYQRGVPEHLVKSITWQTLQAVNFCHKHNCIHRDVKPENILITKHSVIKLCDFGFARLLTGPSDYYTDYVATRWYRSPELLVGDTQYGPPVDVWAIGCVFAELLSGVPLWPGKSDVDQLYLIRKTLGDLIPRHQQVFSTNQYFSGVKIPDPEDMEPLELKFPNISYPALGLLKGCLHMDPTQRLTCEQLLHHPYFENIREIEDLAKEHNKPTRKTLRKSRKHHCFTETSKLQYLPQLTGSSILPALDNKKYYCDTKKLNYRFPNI

[9] = system: Tyrosine-protein kinase ABL1 (Homo sapiens), P00519 [Q252H]; assay: Selectivity interaction (KinomeScan (DiscoverX)) EUB0000618a ABL1; details: at 10 µM
[10] = target: Casein kinase I isoform gamma-1 (Homo sapiens) (UniProt Q9HCP0); assay: Selectivity interaction (KinomeScan (DiscoverX)) EUB0000655a CSNK1G1; details: at 10 µM
Casein kinase I isoform gamma-1 (Homo sapiens), sequence (Q9HCP0 whole entry, looked up, canonical isoform): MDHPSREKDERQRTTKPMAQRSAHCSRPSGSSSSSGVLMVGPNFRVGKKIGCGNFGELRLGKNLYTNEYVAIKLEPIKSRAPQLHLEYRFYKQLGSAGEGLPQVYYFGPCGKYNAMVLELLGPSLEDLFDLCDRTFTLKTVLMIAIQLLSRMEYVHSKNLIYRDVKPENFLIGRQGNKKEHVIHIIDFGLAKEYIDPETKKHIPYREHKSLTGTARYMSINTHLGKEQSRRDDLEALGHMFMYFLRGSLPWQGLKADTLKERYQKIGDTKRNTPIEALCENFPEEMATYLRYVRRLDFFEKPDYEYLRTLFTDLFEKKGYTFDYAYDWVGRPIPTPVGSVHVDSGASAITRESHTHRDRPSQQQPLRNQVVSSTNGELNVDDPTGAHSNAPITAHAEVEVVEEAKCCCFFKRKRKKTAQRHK

[11] = target: cAMP-dependent protein kinase catalytic subunit beta (Homo sapiens) (UniProt P22694); assay: Selectivity interaction (KinomeScan (DiscoverX)) EUB0000655a PRKACB; details: at 10 µM
[12] = target: Tyrosine-protein kinase Yes (Homo sapiens) (UniProt P07947); assay: Selectivity interaction (KinomeScan (DiscoverX)) EUB0000607a YES1; details: at 10 µM
Tyrosine-protein kinase Yes (Homo sapiens), sequence (P07947 2-543 limits assumed): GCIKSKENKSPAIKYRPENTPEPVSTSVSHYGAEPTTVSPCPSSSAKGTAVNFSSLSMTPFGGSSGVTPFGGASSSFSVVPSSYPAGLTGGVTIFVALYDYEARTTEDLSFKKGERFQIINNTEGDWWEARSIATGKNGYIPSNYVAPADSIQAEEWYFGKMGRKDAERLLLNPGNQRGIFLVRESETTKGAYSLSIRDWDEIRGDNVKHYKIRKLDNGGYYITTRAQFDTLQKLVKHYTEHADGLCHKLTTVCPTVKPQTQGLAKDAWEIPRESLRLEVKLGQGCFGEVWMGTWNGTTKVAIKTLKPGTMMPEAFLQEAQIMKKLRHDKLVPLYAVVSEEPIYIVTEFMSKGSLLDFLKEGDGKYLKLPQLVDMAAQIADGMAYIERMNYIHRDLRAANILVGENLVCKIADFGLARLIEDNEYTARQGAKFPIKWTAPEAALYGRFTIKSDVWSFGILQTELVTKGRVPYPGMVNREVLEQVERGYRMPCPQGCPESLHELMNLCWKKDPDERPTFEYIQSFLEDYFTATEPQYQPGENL

[13] = target: Dual specificity mitogen-activated protein kinase kinase 2 (Homo sapiens) (UniProt P36507); assay: Selectivity interaction (Rxn Biology Kinase assay) EUB0001632a MAP2K2; details: at 10 µM

Sphingosine kinase 1 (Homo sapiens), sequence (Q9NYA1 whole entry): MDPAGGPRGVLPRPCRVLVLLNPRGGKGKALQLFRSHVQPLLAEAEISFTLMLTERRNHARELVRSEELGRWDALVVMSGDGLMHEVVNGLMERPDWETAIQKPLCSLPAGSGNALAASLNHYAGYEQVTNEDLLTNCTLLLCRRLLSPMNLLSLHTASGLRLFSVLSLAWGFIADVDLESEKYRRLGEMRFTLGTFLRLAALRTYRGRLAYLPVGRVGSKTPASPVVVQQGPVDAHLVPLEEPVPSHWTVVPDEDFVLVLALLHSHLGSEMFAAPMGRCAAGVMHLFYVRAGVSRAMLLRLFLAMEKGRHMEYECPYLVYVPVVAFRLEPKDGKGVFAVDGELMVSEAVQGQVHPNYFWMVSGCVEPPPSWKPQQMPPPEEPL

## CN1Cc2nccc(-c3cn(C)nc3-c3ccc(F)cc3)c2C1=O
[1]
  % of inhibition: -3%

## COc1cc(N(C)c2ccnc3ccc(C(F)(F)F)cc23)cc(OC)c1OC
[2]
  % binding: 100%

## CCC(=O)N1CC[C@H](Nc2ncnc3c2CN(c2cnc(OC)c(C(F)(F)F)c2)CC3)C1 [LENIOLISIB]
[3]
  IC50: > 10 µM

## CC[C@@H]1[C@H](F)C(=O)N[C@@H]1COc1nccc2cc(C(N)=O)c(OC)cc12 [ZIMLOVISERTIB]
[4]
  % of inhibition: 66%
[5]; at 0.01 µM
  % of inhibition: 4.3%
[5]; at 0.04 µM
  % of inhibition: -0.3%
[5]; at 0.2 µM
  % of inhibition: -3.8%
[5]; at 1 µM
  % of inhibition: 10.3%
[5]; at 5 µM
  % of inhibition: -8.3%

## CCC(=O)N1CCN(c2ccc(-n3c(=O)ccc4cnc5ccc(-c6cnc7ccccc7c6)cc5c43)cc2C(F)(F)F)CC1
[6]
  % of control: 81%
[7]
  % of control: 99%

## C=CC(=O)Nc1cc(-n2c(=O)ccc3cnc4ccc(-c5ccc(NS(C)(=O)=O)cc5)cc4c32)ccc1C
[8]; at 1 µM
  % of control: 100%
[8]; at 10 µM
  % of control: 58%

## O[C@H]1CC[C@H](Nc2ncc3nc(Nc4c(F)cc(F)cc4F)n([C@H]4CCOC4)c3n2)CC1
[9]
  % of control: 36%

## CN(C)CCOc1ccc(-c2nc(-c3ccncc3)c(-c3ccc4c(c3)CC/C4=N\O)[nH]2)cc1
[10]
  % of control: 81%
[11]
  % of control: 74%

## CNC(=O)Nc1ccc(-c2nc(N3CC4CCC(C3)O4)c3cnn(C4CCC5(CC4)OCCO5)c3n2)cc1
[12]
  % of control: 97%

## Cn1cc(-n2cnc3c(NCc4nc5cc(Cl)c(Cl)cc5[nH]4)nc(N4CCOCC4)nc32)cn1
[13]
  % of inhibition: 8.68%

Reference: ChEMBL document CHEMBL5465560, “Selectivity Literature for EUbOPEN Chemogenomic Library” (2024)
